Series [1] has as its target LRRK2 G2019S (Homo sapiens (Human), UniProt Q5S007, G2019S). Put plainly: LRRK2 G2019S LanthaScreen TR-FRET kinase activity assay. The format is biochemical. The following applies: 250 pM kinase, 1.3 mM ATP, n≥2 tests. For orientation: Time-resolved FRET reads energy transfer from a long-lived donor to a nearby acceptor.
Series [2] addresses T1, LRRK2 WT (Homo sapiens (Human), UniProt Q5S007). Put plainly: LRRK2 wild-type LanthaScreen TR-FRET kinase activity assay. The note with it: 1 nM kinase, 1.3 mM ATP, n≥2 tests. Format: biochemical.
Series [3] has as its target T1, LRRK2 WT. Briefly: LRRK2 wild-type ADP-Glo kinase assay. Format: biochemical. The following applies: read-out: LRRK2 WT ADPGlo IC50. For orientation: In ADP-Glo the light output rises with the ADP produced.
Series [4] is described as follows: Fraction unbound in rat plasma and brain homogenate by equilibrium dialysis. Format: in vitro ADME, male Sprague-Dawley rat. The following applies: 1 μM, equilibrium dialysis 5 h at 37° C.; for fubrain (% free): rat brain homogenate; for fuplasma (% free): rat plasma. In a few lines:
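Male Sprague-Dawley rat plasma or brain homogenate (diluted 1:4 in buffer) dialysed against 100 mM sodium phosphate pH 7.4 across a 12-14 kDa membrane, 1 μM compound (≤0.5% DMSO), 5 h at 37° C with shaking. LC/MS-MS of both chambers; fu from buffer/donor ratio, corrected for dilution factor D=4 (brain) or 1 (plasma).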
A general note: Equilibrium dialysis compares concentrations on both sides of a semipermeable membrane.

Series [5] is described as follows: Hepatic microsomal intrinsic clearance assay. The format is in vitro ADME. The following applies: for CLint scaled at 1 μM: pooled liver microsomes, pH 7.4, liver microsomes 0.5 mg/mL, NADPH, 1 hour at 37° C., LLOQ 0.36 L/h/kg. In a few lines:
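Compounds at 1 μM final were incubated with pooled liver microsomes (0.5 mg/mL) in phosphate buffer pH 7.4 at 37 °C for up to 60 min. Samples taken at 0, 5, 10, 20, 30 and 60 min were quenched with acetonitrile and analysed by LC-MS/MS.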

The mark [6] stands for this setting: 0.5 nM kinase, 1.0 mM ATP, IC50=Ki,app+[E]/2, n≥2 tests.

As a reminder, the IC50 is the concentration needed to halve the response being measured. Usually CLint scaled stands for a measure of how fast metabolising enzymes remove a compound, apart from limits set by blood flow.

T1 sequence (Q5S007 970-2527): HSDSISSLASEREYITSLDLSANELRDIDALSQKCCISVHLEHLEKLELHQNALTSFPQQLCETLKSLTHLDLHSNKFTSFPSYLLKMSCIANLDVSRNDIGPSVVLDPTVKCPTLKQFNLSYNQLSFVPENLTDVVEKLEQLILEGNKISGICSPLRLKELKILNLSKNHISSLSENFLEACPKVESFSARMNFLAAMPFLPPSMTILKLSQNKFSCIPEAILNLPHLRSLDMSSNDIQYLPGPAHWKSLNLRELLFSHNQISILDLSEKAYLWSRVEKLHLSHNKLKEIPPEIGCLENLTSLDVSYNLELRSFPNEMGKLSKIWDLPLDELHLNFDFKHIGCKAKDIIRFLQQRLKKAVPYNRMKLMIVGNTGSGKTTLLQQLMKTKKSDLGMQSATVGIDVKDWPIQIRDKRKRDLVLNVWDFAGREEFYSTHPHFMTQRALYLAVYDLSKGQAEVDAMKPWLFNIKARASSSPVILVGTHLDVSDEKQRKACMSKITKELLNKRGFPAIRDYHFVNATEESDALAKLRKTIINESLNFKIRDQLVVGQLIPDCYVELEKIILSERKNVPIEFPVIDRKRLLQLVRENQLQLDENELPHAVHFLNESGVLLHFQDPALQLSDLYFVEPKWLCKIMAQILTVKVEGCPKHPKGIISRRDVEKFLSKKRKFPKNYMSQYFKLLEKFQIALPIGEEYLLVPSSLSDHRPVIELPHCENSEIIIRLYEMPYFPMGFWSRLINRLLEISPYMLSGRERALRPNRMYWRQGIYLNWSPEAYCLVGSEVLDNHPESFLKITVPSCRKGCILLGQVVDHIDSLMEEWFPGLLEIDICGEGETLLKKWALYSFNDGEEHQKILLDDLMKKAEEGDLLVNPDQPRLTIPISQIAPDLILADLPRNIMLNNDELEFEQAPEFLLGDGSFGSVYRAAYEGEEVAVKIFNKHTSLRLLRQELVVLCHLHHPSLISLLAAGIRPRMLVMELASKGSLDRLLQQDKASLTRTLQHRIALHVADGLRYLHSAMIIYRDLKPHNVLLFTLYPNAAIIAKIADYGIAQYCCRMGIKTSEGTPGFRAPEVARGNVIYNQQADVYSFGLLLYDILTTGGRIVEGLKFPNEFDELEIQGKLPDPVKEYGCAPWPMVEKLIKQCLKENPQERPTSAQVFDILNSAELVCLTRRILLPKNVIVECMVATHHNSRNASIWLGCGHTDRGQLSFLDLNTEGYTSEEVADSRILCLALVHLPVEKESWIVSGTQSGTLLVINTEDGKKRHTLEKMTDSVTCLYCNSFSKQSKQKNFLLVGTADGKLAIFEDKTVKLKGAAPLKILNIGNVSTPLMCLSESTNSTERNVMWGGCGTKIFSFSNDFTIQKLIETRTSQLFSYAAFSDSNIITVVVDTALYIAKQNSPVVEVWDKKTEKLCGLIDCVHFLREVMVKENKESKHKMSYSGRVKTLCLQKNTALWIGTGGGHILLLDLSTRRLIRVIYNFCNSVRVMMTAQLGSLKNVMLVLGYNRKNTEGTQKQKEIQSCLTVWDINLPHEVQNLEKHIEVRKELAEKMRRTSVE
Chain of LRRK2 G2019S (Q5S007 970-2527 G2019S): as the sequence (Q5S007 970-2527) above, with G1050S counted along it

With `COc1ncc(C)cc1-n1nc2c(c1C)Nc1ncc3c(Cl)nn(c3n1)CCCO2` [Example 12, 8-Chloro-2-(2-methoxy-5-methylpyridin-3-yl)-3-methyl-2,4,12,13-tetrahydro-11H-5,7-(azenometheno)dipyrazolo[3,4-b:5′,1′-g][1]oxa[4,6,8]triazacycloundecine], the IC50 in series [1] came out at 0.13 nM; in series [2], 0.4 nM; in series [3] (setting [6]) it was 0.63 nM. For the same molecule, the “fubrain (% free)” value in series [4] is 3.0 % free. Also, the “fuplasma (% free)” value in series [4] is 6.7 % free. Also, in series [5], the CLint scaled at 1 μM is 16.8 mL/min/kg.

Turning to `COc1nccc(C)c1-n1nc2c(c1C)Nc1ncc3c(Cl)nn(c3n1)CCCO2` [Example 7, 8-Chloro-2-(2-methoxy-4-methylpyridin-3-yl)-3-methyl-2,4,12,13-tetrahydro-11H-5,7-(azenometheno)dipyrazolo[3,4-b:5′,1′-g][1]oxa[4,6,8]triazacycloundecine], the IC50 in series [1] was 2.3 nM; in series [2] it was 6.9 nM; in series [3] (setting [6]), 0.78 nM. In series [4], the “fubrain (% free)” value is reported as 7.5 % free. Further, the “fuplasma (% free)” value in series [4] was determined as 21.0 % free. Moreover, the CLint scaled at 1 μM in series [5] is 16.2 mL/min/kg.

For the molecule `COc1nc(C)ncc1-n1nc2c(c1C)Nc1ncc3c(Cl)nn(c3n1)CCCO2` [Example 22, 8-Chloro-2-(4-methoxy-2-methylpyrimidin-5-yl)-3-methyl-2,4,12,13-tetrahydro-11H-5,7-(azenometheno)dipyrazolo[3,4-b:5′,1′-g][1]oxa[4,6,8]triazacycloundecine], the IC50 in series [1] turned out to be 0.59 nM; in series [2], 2.1 nM; in series [3], 0.6 nM. Besides, the “fubrain (% free)” value in series [4] is given as 6.8 % free. For the same molecule, the “fuplasma (% free)” value in series [4] was 16.8 % free. For the same molecule, the CLint scaled at 1 μM in series [5] is under 6 mL/min/kg.

Take `Cc1c2c(nn1-c1cccnc1C(C)(F)F)OCCCn1nc(Cl)c3cnc(nc31)N2` [Example 14, 8-Chloro-2-(2-(1,1-difluoroethyl)pyridin-3-yl)-3-methyl-2,4,12,13-tetrahydro-11H-5,7-(azenometheno)dipyrazolo[3,4-b:5′,1′-g][1]oxa[4,6,8]triazacycloundecine]: the IC50 in series [1] worked out at 4.2 nM; in series [2], 14 nM; in series [3] (setting [6]), 1.5 nM. Further, the “fubrain (% free)” value in series [4] stood at 5.8 % free. In addition, in series [4], the “fuplasma (% free)” value amounted to 14.6 % free. For the same molecule, the CLint scaled at 1 μM in series [5] was 17.2 mL/min/kg.

On to `COc1nc(C)ccc1-n1nc2c(c1C)Nc1ncc3c(Cl)nn(c3n1)CCCO2` [Example 13, 8-Chloro-2-(2-methoxy-6-methylpyridin-3-yl)-3-methyl-2,4,12,13-tetrahydro-11H-5,7-(azenometheno)dipyrazolo[3,4-b:5′,1′-g][1]oxa[4,6,8]triazacycloundecine], for which the IC50 was 0.22 nM in series [1], 0.57 nM in series [2] and 0.33 nM in series [3] (setting [6]). Moreover, the “fubrain (% free)” value in series [4] came out at 1.9 % free. Also, in series [4], the “fuplasma (% free)” value amounted to 7.4 % free. The “Rate of metabolism classification (liver microsomal CLint)” value in series [5] (based on liver microsomal CLint values of Table 6) is given as “moderate to high rate of metabolism”. Besides, the CLint scaled at 1 μM in series [5] was 30.3 mL/min/kg.

On to `COc1ncccc1-n1nc2c(c1C)Nc1ncc3c(Cl)nn(c3n1)CCCO2` [Example 1, 8-Chloro-2-(2-methoxypyridin-3-yl)-3-methyl-2,4,12,13-tetrahydro-11H-5,7-(azenometheno)dipyrazolo[3,4-b:5′,1′-g][1]oxa[4,6,8]triazacycloundecine], for which the IC50 worked out at 0.45 nM in series [1], 1.1 nM in series [2] and 0.46 nM in series [3] (setting [6]). Moreover, the “fubrain (% free)” value in series [4] stood at 4.7 % free. In series [4], the “fuplasma (% free)” value amounted to 14.7 % free. Also, in series [5], the CLint scaled at 1 μM was 9.67 mL/min/kg.

`Cc1nc(C)c(-n2nc3c(c2C)Nc2ncc4c(Cl)nn(c4n2)CCCO3)cc1F` [Example 15, 8-Chloro-2-(5-fluoro-2,6-dimethylpyridin-3-yl)-3-methyl-2,4,12,13-tetrahydro-11H-5,7-(azenometheno)dipyrazolo[3,4-b:5′,1′-g][1]oxa[4,6,8]triazacycloundecine]: the IC50 in series [1] was found to be 1.4 nM; in series [2], 4 nM; in series [3] (setting [6]) it was 0.66 nM. For the same molecule, the “fubrain (% free)” value in series [4] turned out to be 5.0 % free. The “fuplasma (% free)” value in series [4] was found to be 11.0 % free. In series [5], this molecule showed a CLint scaled at 1 μM of 12 mL/min/kg.

(Values after US11958865B1, “Leucine-rich repeat kinase 2 (LRRK2) inhibitors” (H. Lundbeck A/S, priority 2022, dated 2024).)
